The values below are quoted from earlier work in patent US20230405034A1, “FORMULATION OF IVERMECTIN IN SOFT GELATIN CAPSULES” (PROCAPS S.A., priority 2020, published 2023).

For series [1] the following is noted: cited from earlier work.
The subject of series [2] is pseudorabies DNA virus (PRV). Conditions: ivermectin treatment; cited from earlier work.
The next series relates to SARS-CoV-2. The conditions noted are these: SARS-CoV-2 in vitro, after 48 hours; cited from earlier work.
For series [3] the following is noted: in vivo; cited from earlier work.

Take Ivermectin: the solubility in water result in series [1] is “practically insoluble in water”. The “survival in PRV-infected mice” value in series [2] is reported as “increases survival”. The “reduction in viral RNA” value with SARS-CoV-2 was “approximately 5,000 fold”.

For the substance medium chain triglycerides, in series [3], the plasma half-life entry is “approximately 17 minutes”.
